Results on four molecules are retold here after patent US10351519B2, “Sulfamate derivative compounds, processes for preparing them and their uses” (BIO-PHARM SOLUTIONS CO., LTD., priority 2016, dated 2019).

Holding throughout (format): in vivo
The test system of assay [1] is ICR mice. Put plainly: Anti-epilepsy activity, scPTZ test, mouse. The conditions noted are these: for ED50: ip. An excerpt: In this experiment, each test compound sample was formulated as described in Biological Experimental Example I, and administered intraperitoneally to the test animals (mice; ICR or Rat; SD); Experimental animals, male ICR mice and male SD rats, were purchased from OrientBio or Nara biotech, Korea, and housed 4-5 mice per a cage for 4-5 days. The range of mice body weight was used between 19 and 26 grams and range of rats body weight was used between 100 and 130 grams. After Peak time (0.5, 1, 2 and 4 hr) from the administration, PTZ (Pentylenetetrazol) was administered subcutaneously in the concentration capable of inducing 97% intermittent convulsions (mice: 76-110 mg/kg·bw, 10 μl/g, or rats: 79-110 mg/kg·bw, 2 μl/g). If clonic seizure was not observed for at least 30 minutes in the PTZ administered animal, it can be considered that the test compound has anti-epilepsy activity. The median effective dose (ED50) is determined using 6 animals per a concentration (total three different concen-trations), and calculated by Litchfield and Wicoxon log-probit method which is a dose-response relationship.

The subject of a further assay is Sprague-Dawley rats. Put plainly: Antiallodynic activity on Chung model (SNL, spinal nerve ligation). To be noted: orally; for ED50: Rattus norvegicus, po, at peak time.
Assay [2] relates to ICR mice. The assay is described as follows: Chemical induced seizure model (PIC, picrotoxin). To be noted: for ED50: Mus musculus, ip. As to the method:
Picrotoxin (PIC) were used to induce the behavioral seizures in the experiments. Male ICR mice (purchased from Orient Bio Inc. Korea) of body weight 19-26 g (mice) were used for these studies. The test materials were administered intraperitoneal (ip) route in a volume of 10 ul/g (mice) weight in mice, respectively. Pharmacological effects of the test materials were evaluated to compared test groups (n=6) with a control group (n=6). Control group was administrated vehicle, only. The peak time was determined by administration of test material's random dose for 0.5, 1, 2, 4 hour. The time that the most protect was defined as a peak time and ED50 was determined by other dose administration at the peak time. Chemical (PIC) was dissolved in 0.9% saline and administered subcutaneously (s.c.) at its CD97 (convulsive dose 97%), the dose of Chemical (PIC) that produced clonic seizures in 97% into a loose fold of skin in the midline of the neck in a volume of 10 ul/g (mice) body weight. The animals were then transferred to observation cages and observed continuously for 45 min (PIC). Clonic seizure was elicited in approximately 97% of control group. Protection was defined as a complete absence of clonic seizure over the 45-min observation period. The effective dose of compound necessary to protect against generalized convulsive seizures to 50% of controls (i.e. ED50) was determined by log probit analysis using SPSS software program (SPSS Inc.). (Reference; White H. S., J. H. Woodhead, K. S. Wilcox, J. P. Stables, H. J. Kupferberg, and H. H. Wolf. General Principles; Discovery and Preclinical De-velopment of Antiepileptic Drugs. In: R. H. Levy, R. H. Mattson, B. S. Meldrum, and E. Perucca, eds. Antiepileptic Drugs, 5th Ed. Lippincott Williams & Wilkins, Philadelphia 2002: pp. 36-48.) The obtained results are shown in following Table 10.

In the next assay the test system is SD rats. Put plainly: Anti-epilepsy activity, MES test, rat. To be noted: for ED50: Rattus norvegicus, po. Put shortly: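 Maximal electroshock delivered through corneal electrodes at 60 Hz for 0.2 s: 50 mA for male ICR mice (19–25 g), 150 mA for male SD rats (100–130 g). Compounds given orally in 30% PEG 400 or 20% Tween 80 in saline, tested at peak time, three doses per compound. ED50 for seizure protection derived by Litchfield–Wilcoxon log-probit analysis.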

Structures are written as SMILES.

What is called ED50 is the dose at which the effect has come halfway, by size or by number of responders. The low end stands for greater potency, the high end for weaker potency. In the case of `C[C@@H](OS(N)(=O)=O)[C@H](O)c1ccccc1Cl` [Example 2, (1R, 2R)-1-(2-chlorophenyl)-1-hydroxypropan-2-yl sulfamate], in the assay on ICR mice [1], the “scPTZ test (ip) Peak time” value was found to be 1 h and the 50% effective dose (ED50) amounted to 18.2 mg/kg. Further, in the assay on Sprague-Dawley rats, the “SNL Peak Time” value was 1 h. Further, in the assay on Sprague-Dawley rats (30 mg/kg), the SNL efficacy % is on record as 30(38.6%). Besides, in the assay on ICR mice [2], the “PIC(ip) Peak Time” value is recorded as 1 h and it took a dose of 24.1 mg/kg to reach the 50% effect level (ED50). In addition, in the assay on SD rats, the “MES test (po) Peak time” value is “(2 h)” and the ED50 was found to be 5 mg/kg.
`C[C@H](OS(N)(=O)=O)[C@@H](O)c1c(Cl)cccc1Cl` [Example 7, (1S, 2S)-1-(2,6-dichlorophenyl)-1-hydroxypropan-2-yl sulfamate]: in the assay on ICR mice [1], the “scPTZ test (ip) Peak time” value is 0.5 h and it took a dose of 8.6 mg/kg to reach the 50% effect level (ED50). Further, in the assay on Sprague-Dawley rats, it took a dose of 4.4 mg/kg to reach the 50% effect level (ED50) and the “SNL Peak Time” value is 0.5 h. For the same molecule, in the assay on ICR mice [2], the “PIC(ip) Peak Time” value is 0.5 h and it took a dose of 28.5 mg/kg to reach the 50% effect level (ED50). Besides, in the assay on SD rats, the “MES test (po) Peak time” value is on record as “(2 h)” and the 50% effect level (ED50) was put at a dose of 23.5 mg/kg.
Regarding `C[C@@H](OS(N)(=O)=O)[C@H](O)c1c(Cl)cccc1Cl` [Example 8, (1R, 2R)-1-(2,6-dichlorophenyl)-1-hydroxypropan-2-yl sulfamate], in the assay on ICR mice [1], the “scPTZ test (ip) Peak time” value was 1 h and the ED50 worked out at 13.5 mg/kg. Moreover, in the assay on Sprague-Dawley rats, the median effective dose (ED50) stood at 35.3 mg/kg and the “SNL Peak Time” value was determined as 1 h. Also, in the assay with ICR mice [2], the “PIC(ip) Peak Time” value was determined as 1 h and the ED50 is 73.9 mg/kg. Further, in the assay with SD rats, the “MES test (po) Peak time” value was “(1 h)” and the ED50 stood at 24 mg/kg.
For the molecule `COCO[C@H](c1ccccc1Cl)[C@@H](C)OS(N)(=O)=O` [Example 70, (1R, 2R)-1-(2-chlorophenyl)-1-(methoxymethoxy)propan-2-yl sulfamate], in the assay with ICR mice [1], the “scPTZ test (ip) Peak time” value is 2 h and it took a dose of 50.2 mg/kg to reach the 50% effect level (ED50). Also, in the assay on Sprague-Dawley rats, the 50% effect level (ED50) was put at a dose of 6.5 mg/kg and the “SNL Peak Time” value came out at 1 h. In addition, in the assay with SD rats, the “MES test (po) Peak time” value is reported as “(1 h)” and the ED50 was determined as 46.6 mg/kg.
